“And” between values parts separate entries of the source, which are not always exact repeats. Equal entries are not always repeated. Toxic doses and inconclusive results are not listed. Rule as the data show it: active = T/C of 150% or more; inactive = T/C below 125%.
Tested on: L1210 leukemia ip in BDF1 mice, survival T/C
Experiment: NCI In Vivo Anticancer Drug Screen. Data for tumor model L1210 Leukemia (intraperitoneal) in B6D2F1 (BDF1) mice
Settings: endpoint: mean survival time, higher = longer survival
Outline: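 Antitumor effect is assessed in tumor-bearing animals. Survival in the compound arm is compared with a vehicle-dosed control arm and expressed as their quotient.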

[1] = dose: 100.0 mg/kg/injection, schedule: Q04DX003 (ip), vehicle: Klucel (hydroxypropylcellulose) (HPC)
[2] = dose: 400.0 mg/kg/injection, schedule: Q04DX003 (ip), vehicle: Klucel (hydroxypropylcellulose) (HPC)
[3] = dose: 200.0 mg/kg/injection, schedule: Q01DX001 (ip), vehicle: carboxymethylcellulose (CMC)
[4] = dose: 200.0 mg/kg/injection, schedule: Q04DX003 (ip), vehicle: Klucel (hydroxypropylcellulose) (HPC)
[5] = dose: 50.0 mg/kg/injection, schedule: Q01DX009 (ip), vehicle: Klucel (hydroxypropylcellulose) (HPC)
[6] = dose: 100.0 mg/kg/injection, schedule: Q01DX009 (ip), vehicle: Klucel (hydroxypropylcellulose) (HPC)
[7] = dose: 200.0 mg/kg/injection, schedule: Q01DX009 (ip), vehicle: Klucel (hydroxypropylcellulose) (HPC)
[8] = dose: 400.0 mg/kg/injection, schedule: Q01DX009 (ip), vehicle: Klucel (hydroxypropylcellulose) (HPC)
[9] = dose: 100.0 mg/kg/injection, schedule: Q04DX003 (ip), vehicle: saline with Tween-80
[10] = dose: 200.0 mg/kg/injection, schedule: Q04DX003 (ip), vehicle: saline with Tween-80
[11] = dose: 400.0 mg/kg/injection, schedule: Q04DX003 (ip), vehicle: saline with Tween-80
[12] = dose: 100.0 mg/kg/injection, schedule: Q04DX003 (ip), vehicle: saline
[13] = dose: 200.0 mg/kg/injection, schedule: Q04DX003 (ip), vehicle: saline
[14] = dose: 100.0 mg/kg/injection, schedule: Q01DX001 (ip), vehicle: saline
[15] = dose: 200.0 mg/kg/injection, schedule: Q01DX001 (ip), vehicle: saline
[16] = dose: 400.0 mg/kg/injection, schedule: Q01DX001 (ip), vehicle: saline
[17] = dose: 100.0 mg/kg/injection, schedule: Q01DX001 (ip), vehicle: saline with Tween-80
[18] = dose: 200.0 mg/kg/injection, schedule: Q01DX001 (ip), vehicle: saline with Tween-80
[19] = dose: 400.0 mg/kg/injection, schedule: Q01DX001 (ip), vehicle: saline with Tween-80
[20] = dose: 50.0 mg/kg/injection, schedule: Q01DX009 (ip), vehicle: saline

Measured: T/C

CC(C)=CCc1c2c(c3occ(-c4ccc(O)cc4)c(=O)c3c1O)C=CC(C)(C)O2
inactive: [1] 88 % of control | [2] 88 % of control

O=C(CBr)c1ccc2cc(Br)c3ccccc3c2c1
inactive: dose: 55.0 mg/kg/injection, schedule: Q01DX Z (ip), vehicle: methylcellulose (MC) 90 % of control | dose: 83.0 mg/kg/injection, schedule: Q01DX Z (ip), vehicle: methylcellulose (MC) 94 % of control | dose: 125.0 mg/kg/injection, schedule: Q01DX Z (ip), vehicle: methylcellulose (MC) 102 % of control

COC(=O)C1OC1c1ccc2c(c1)OCO2 (configuration not stated)
inactive: dose: 88.8 mg/kg/injection, schedule: Q01DX001 (ip), vehicle: carboxymethylcellulose (CMC) 97 % of control and 98 % of control | dose: 133.4 mg/kg/injection, schedule: Q01DX001 (ip), vehicle: carboxymethylcellulose (CMC) 95 % of control and 106 % of control | [3] 95 % of control and 97 % of control | dose: 300.0 mg/kg/injection, schedule: Q01DX001 (ip), vehicle: carboxymethylcellulose (CMC) 93 % of control and 101 % of control

Cc1nonc1-c1ccc2c(c1)OCO2
inactive: [1] 103 % of control | [4] 97 % of control | [2] 101 % of control

COc1cc(C)c(C2NC(=O)c3ccccc3N2)cc1C (configuration not stated)
inactive: [5] 95 % of control | [6] 104 % of control and 109 % of control | [1] 97 % of control | dose: 150.0 mg/kg/injection, schedule: Q01DX009 (ip), vehicle: Klucel (hydroxypropylcellulose) (HPC) 109 % of control | [7] 100 % of control | [4] 97 % of control | [8] 107 % of control | [2] 103 % of control

N#CSCc1cc(Cl)c(CSC#N)c(Cl)c1Cl
inactive: dose: 75.0 mg/kg/injection, schedule: Q01DX009 (ip), vehicle: saline 89 % of control | dose: 150.0 mg/kg/injection, schedule: Q01DX009 (ip), vehicle: saline 96 % of control | dose: 300.0 mg/kg/injection, schedule: Q01DX009 (ip), vehicle: saline 91 % of control

CSCCNC(=O)CS(=O)(=O)c1ccc(N)cc1
inactive: [9] 97 % of control | [10] 97 % of control | [11] 97 % of control

CC(=O)/C=N/NC(=O)C(O)C(O)C(O)C(O)CO (configuration not stated)
inactive: [12] 102 % of control | [13] 94 % of control | dose: 400.0 mg/kg/injection, schedule: Q04DX003 (ip), vehicle: saline 91 % of control

O=C1c2cc([N+](=O)[O-])ccc2SC2C=CSC12 (configuration not stated)
inactive: dose: 100.0 mg/kg/injection, schedule: Q01DX001 (ip), vehicle: carboxymethylcellulose (CMC) 94 % of control | [3] 108 % of control | dose: 400.0 mg/kg/injection, schedule: Q01DX001 (ip), vehicle: carboxymethylcellulose (CMC) 100 % of control

O=c1[nH]cc(CCOCc2ccccc2)c(=O)[nH]1
inactive: [14] 103 % of control | [15] 94 % of control | [16] 103 % of control

CCN(Cc1ccncc1)C(=O)C(O)(c1ccccc1)c1ccccc1
inactive: [17] 93 % of control | [18] 88 % of control | [19] 87 % of control

N#CCC(=O)Nc1ccccc1
inactive: [6] 95 % of control | dose: 100.0 mg/kg/injection, schedule: Q04DX002 (ip), vehicle: Klucel (hydroxypropylcellulose) (HPC) 109 % of control | [7] 103 % of control | dose: 200.0 mg/kg/injection, schedule: Q04DX002 (ip), vehicle: Klucel (hydroxypropylcellulose) (HPC) 109 % of control | [8] 114 % of control | dose: 400.0 mg/kg/injection, schedule: Q04DX002 (ip), vehicle: Klucel (hydroxypropylcellulose) (HPC) 106 % of control

N#CC=P(c1ccccc1)(c1ccccc1)c1ccccc1
inactive: [20] 87 % of control

c1ccc(NC2=NCCN2)nc1
inactive: dose: 75.0 mg/kg/injection, schedule: Q01DX001 (ip), vehicle: saline 93 % of control

CON(C)CCOC(=O)c1ccc(N)cc1
inactive: dose: 50.0 mg/kg/injection, schedule: Q04DX002 (ip), vehicle: saline with Tween-80 104 % of control | dose: 100.0 mg/kg/injection, schedule: Q04DX002 (ip), vehicle: saline with Tween-80 107 % of control | [9] 89 % of control | dose: 200.0 mg/kg/injection, schedule: Q04DX002 (ip), vehicle: saline with Tween-80 104 % of control | [10] 95 % of control | dose: 400.0 mg/kg/injection, schedule: Q04DX002 (ip), vehicle: saline with Tween-80 104 % of control | [11] 99 % of control

CC(C)CNC(=O)CCc1ccc(N(CCCl)CCCl)cc1
inactive: [5] 109 % of control | [6] 117 % of control | [1] 120 % of control | [4] 102 % of control | [2] 112 % of control

Cc1ccc(S(=O)(=O)N(CC(=O)O)c2ccccc2-c2ccccc2)cc1
inactive: [14] 100 % of control | [15] 89 % of control | [16] 100 % of control

CC(C)C1CCC(C)C(OB(OC2CC(C(C)C)CCC2C)OC2CC(C(C)C)CCC2C)C1 (configuration not stated)
inactive: [1] 88 % of control | [4] 99 % of control | [2] 88 % of control

CC(C)(C)CC(=O)CC(C)(C)C
inactive: [14] 98 % of control | [15] 87 % of control | [16] 98 % of control

CCCCCCCCCCc1ccc(CCCCCCCCCC)cc1
inactive: [17] 94 % of control | [18] 92 % of control | [19] 99 % of control

O=C1c2ccccc2CC/C(=N\O)C1c1ccccc1 (configuration not stated)
inactive: [17] 107 % of control | [18] 98 % of control | [19] 104 % of control

CCC(C)C(NC(=O)C1CSC(C)(C)N1C=O)C(=O)OC1CCCCC1 (configuration not stated)
inactive: [9] 98 % of control | [10] 97 % of control | [11] 101 % of control

CCOCCOCCOC(=O)COCC(=O)OCCOCCOCC
inactive: [14] 96 % of control | [15] 113 % of control | [16] 111 % of control

N#CCN1Cc2ccccc2CCc2ccccc2C1
inactive: [5] 103 % of control | [6] 108 % of control | [1] 100 % of control | [7] 107 % of control | [4] 96 % of control

CC(CN)N(C)C (configuration not stated)
inactive: [20] 89 % of control | dose: 100.0 mg/kg/injection, schedule: Q01DX009 (ip), vehicle: saline 95 % of control | [12] 93 % of control | dose: 200.0 mg/kg/injection, schedule: Q01DX009 (ip), vehicle: saline 89 % of control | [13] 97 % of control

CC(CN=Cc1ccccc1[O-])N=Cc1ccccc1[O-].[O]=[V] (configuration not stated)
inactive: dose: 5.0 mg/kg/injection, schedule: Q01DX009 (ip), vehicle: saline with Tween-80 94 % of control | dose: 10.0 mg/kg/injection, schedule: Q01DX009 (ip), vehicle: saline with Tween-80 91 % of control | dose: 20.0 mg/kg/injection, schedule: Q01DX009 (ip), vehicle: saline with Tween-80 97 % of control

Reference: PubChem BioAssay AID248 (DTP/NCI, 2004)
